The text below walks through data of ChEMBL document CHEMBL4673239, “Discovery of Tyrosine Kinase 2 (TYK2) Inhibitor (PF-06826647) for the Treatment of Autoimmune Diseases” (J Med Chem, 2020).

A short description of data set [1]: Fraction unbound in human plasma. The class given is ADME, cell-free.
In data set [2] the target is T1, Tyrosine-protein kinase JAK2 (Homo sapiens, UniProt O60674). Nature of the data set: Inhibition of JAK2 homodimer signaling pathway in human whole blood spiked with CD34 +ve cells assessed as reduction in EPO induced STAT5 phosphorylation preincubated for 45 mins followed by EPO addition and measured measured after 15 mins by immunostaining based FACS assay. Format: tissue-based.
T1 sequence (O60674 whole entry): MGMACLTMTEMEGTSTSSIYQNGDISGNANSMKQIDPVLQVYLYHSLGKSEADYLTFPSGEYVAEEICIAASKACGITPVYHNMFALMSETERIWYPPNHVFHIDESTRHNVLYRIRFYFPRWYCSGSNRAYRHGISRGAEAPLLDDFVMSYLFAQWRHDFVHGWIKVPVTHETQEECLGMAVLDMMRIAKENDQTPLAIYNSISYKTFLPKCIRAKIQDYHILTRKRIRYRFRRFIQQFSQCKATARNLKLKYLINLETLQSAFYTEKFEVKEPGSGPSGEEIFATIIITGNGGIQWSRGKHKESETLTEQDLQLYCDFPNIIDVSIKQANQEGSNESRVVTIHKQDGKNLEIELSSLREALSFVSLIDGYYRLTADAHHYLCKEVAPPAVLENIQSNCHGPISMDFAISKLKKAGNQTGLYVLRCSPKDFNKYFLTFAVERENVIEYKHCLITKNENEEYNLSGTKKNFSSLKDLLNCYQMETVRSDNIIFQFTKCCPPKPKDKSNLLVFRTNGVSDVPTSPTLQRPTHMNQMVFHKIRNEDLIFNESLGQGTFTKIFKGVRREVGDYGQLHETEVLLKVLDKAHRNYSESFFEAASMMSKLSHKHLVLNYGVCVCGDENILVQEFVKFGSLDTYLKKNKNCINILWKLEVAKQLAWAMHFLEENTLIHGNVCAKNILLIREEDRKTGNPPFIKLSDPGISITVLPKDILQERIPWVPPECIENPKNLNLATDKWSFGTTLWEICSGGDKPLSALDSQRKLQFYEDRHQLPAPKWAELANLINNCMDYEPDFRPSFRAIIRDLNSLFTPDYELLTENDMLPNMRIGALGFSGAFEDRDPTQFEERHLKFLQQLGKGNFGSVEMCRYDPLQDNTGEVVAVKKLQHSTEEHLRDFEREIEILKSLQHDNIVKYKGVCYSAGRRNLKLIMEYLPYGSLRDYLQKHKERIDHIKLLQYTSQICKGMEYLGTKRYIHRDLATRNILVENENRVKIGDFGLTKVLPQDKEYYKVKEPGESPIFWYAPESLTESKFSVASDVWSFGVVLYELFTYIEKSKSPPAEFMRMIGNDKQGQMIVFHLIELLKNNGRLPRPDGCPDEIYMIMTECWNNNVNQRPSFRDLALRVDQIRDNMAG

Data set [3] in a line: Apparent permeability in MDCK-II cells. The class given is ADME, cell-based, Canis lupus familiaris. The settings on record: dog.
Data set [4] can be described thus: Apparent clearance in human hepatocytes assessed per million cells. Format: ADME, cell-based, Hepatocyte. To be noted: read-out: CLH.
A short description of a further data set: physchem. The settings on record: octanol/water phosphate buffer, pH 7.4.
Data set [5] is described as follows: Clearance in human liver microsomes assessed per mg protein. Format: ADME, Microsome. To be noted: read-out: CLH.
For data set [6], the target named is T1, Tyrosine-protein kinase JAK2. Nature of the data set: Inhibition of recombinant human GST-tagged JAK2 catalytic domain (809 to 1153+9 residues) expressed in baculovirus expression system using FITC-KGGEEEEYFELVKK as substrate in presence of ATP at Km by microfluidic assay.
Data set [7] has as its target T2, Tyrosine-protein kinase JAK3 (Homo sapiens, UniProt P52333).
T2 sequence (P52333 whole entry): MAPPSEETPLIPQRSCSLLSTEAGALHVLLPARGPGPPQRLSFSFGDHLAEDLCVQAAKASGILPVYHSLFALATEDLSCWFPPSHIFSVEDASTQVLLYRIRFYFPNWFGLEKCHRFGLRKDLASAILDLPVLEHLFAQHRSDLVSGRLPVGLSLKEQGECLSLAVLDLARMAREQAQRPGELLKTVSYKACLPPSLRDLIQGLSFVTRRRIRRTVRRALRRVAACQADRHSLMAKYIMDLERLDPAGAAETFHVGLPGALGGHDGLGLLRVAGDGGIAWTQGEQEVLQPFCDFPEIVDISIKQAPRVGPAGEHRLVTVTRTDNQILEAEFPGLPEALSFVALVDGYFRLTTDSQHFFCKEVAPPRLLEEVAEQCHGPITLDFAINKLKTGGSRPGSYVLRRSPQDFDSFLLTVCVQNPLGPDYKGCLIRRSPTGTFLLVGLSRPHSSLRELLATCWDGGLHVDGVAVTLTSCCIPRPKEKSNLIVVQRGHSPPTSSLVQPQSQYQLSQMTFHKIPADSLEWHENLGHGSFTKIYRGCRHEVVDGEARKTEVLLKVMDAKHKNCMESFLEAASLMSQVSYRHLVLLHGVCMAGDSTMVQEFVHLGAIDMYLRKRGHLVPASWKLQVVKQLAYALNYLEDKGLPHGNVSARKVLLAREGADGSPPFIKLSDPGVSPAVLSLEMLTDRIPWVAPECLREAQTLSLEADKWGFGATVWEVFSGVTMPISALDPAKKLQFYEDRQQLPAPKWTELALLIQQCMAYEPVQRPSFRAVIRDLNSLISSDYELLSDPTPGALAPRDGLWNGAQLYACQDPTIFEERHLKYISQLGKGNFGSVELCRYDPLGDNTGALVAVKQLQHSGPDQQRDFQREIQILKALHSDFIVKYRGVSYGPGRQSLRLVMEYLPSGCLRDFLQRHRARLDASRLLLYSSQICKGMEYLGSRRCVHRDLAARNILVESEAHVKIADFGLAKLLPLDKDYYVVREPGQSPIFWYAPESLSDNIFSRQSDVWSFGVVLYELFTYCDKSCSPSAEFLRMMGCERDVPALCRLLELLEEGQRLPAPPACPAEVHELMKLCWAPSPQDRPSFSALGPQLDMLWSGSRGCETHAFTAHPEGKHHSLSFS
Nature of the data set: Inhibition of recombinant human GST-tagged JAK3 catalytic domain (781 to 1124 residues) expressed in baculovirus expression system using FITC-KGGEEEEYFELVKK as substrate in presence of ATP at Km by microfluidic assay.

Data set [8] concerns the target Non-receptor tyrosine-protein kinase TYK2 (Homo sapiens, UniProt P29597). Nature of the data set: biochemical.
Data set [9] concerns the target Tyrosine-protein kinase JAK1 (Homo sapiens, UniProt P23458).
A further data set relates to TYK2/JAK2 (Homo sapiens). To be noted: Blood, time 60.0 min.
A further data set is filed under the species Homo sapiens. Nature of the data set: Selectivity ratio of IC50 for recombinant human GST-tagged JAK2 catalytic domain (809 to 1153+9 residues) expressed in baculovirus expression system to IC50 for inhibition of recombinant human His-tagged TYK2 expressed in baculovirus infected Sf21 cells.

Non-receptor tyrosine-protein kinase TYK2, sequence (P29597 whole entry): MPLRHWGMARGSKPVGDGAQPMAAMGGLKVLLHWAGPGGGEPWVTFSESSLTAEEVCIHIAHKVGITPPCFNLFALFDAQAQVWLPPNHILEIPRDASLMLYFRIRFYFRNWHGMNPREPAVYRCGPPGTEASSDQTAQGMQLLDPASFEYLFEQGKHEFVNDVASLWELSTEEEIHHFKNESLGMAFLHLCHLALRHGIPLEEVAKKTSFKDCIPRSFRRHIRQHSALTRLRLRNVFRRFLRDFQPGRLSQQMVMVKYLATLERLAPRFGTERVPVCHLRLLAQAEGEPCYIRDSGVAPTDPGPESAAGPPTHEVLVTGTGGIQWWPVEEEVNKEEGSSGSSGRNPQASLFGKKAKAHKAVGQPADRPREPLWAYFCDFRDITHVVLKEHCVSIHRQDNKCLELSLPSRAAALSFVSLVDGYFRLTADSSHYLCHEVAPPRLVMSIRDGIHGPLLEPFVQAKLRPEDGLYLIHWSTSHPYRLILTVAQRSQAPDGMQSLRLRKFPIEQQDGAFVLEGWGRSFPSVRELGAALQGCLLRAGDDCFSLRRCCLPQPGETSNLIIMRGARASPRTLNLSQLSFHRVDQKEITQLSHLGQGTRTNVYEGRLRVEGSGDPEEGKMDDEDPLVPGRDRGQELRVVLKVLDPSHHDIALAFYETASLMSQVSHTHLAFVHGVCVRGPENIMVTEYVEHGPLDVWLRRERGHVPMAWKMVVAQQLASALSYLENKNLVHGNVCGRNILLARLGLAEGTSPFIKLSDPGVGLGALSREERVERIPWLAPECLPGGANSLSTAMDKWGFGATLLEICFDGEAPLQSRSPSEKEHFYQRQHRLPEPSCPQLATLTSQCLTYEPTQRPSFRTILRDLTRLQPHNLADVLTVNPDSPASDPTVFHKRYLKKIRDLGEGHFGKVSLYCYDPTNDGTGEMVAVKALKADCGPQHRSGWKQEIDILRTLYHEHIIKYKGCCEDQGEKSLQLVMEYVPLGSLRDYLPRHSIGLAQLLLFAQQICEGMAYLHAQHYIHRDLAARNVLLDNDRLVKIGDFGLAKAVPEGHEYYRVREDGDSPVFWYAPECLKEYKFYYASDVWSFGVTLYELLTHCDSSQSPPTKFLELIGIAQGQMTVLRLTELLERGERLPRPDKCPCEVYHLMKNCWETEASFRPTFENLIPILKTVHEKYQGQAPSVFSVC
Tyrosine-protein kinase JAK1, sequence (P23458 whole entry): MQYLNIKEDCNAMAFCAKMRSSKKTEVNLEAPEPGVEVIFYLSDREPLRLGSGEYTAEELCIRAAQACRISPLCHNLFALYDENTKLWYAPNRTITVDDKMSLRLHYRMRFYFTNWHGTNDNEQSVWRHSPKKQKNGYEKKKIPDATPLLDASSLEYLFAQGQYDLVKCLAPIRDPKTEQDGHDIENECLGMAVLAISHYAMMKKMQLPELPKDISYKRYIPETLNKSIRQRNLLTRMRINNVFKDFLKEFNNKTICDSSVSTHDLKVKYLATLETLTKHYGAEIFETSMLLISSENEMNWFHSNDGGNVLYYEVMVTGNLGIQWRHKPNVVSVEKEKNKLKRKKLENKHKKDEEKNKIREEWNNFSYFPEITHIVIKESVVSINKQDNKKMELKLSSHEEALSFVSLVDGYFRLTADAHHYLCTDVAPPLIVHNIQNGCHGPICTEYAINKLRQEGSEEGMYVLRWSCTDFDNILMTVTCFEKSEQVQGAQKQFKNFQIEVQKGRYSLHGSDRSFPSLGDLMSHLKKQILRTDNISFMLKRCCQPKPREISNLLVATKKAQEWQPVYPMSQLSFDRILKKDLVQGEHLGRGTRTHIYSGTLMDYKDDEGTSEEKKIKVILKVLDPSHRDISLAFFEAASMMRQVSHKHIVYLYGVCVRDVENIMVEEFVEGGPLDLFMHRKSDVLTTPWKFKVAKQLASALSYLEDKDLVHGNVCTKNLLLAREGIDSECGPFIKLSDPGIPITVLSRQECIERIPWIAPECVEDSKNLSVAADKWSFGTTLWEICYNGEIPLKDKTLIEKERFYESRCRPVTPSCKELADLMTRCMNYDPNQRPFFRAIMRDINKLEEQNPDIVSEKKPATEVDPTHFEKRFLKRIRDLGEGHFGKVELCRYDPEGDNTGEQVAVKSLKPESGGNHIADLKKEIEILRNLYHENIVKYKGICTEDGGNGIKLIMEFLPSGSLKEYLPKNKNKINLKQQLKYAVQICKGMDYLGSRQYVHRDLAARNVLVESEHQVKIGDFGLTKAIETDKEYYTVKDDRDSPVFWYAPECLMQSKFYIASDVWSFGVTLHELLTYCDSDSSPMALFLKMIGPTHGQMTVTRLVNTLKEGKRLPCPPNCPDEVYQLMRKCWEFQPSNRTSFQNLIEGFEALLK
Description for physchem: Octanol/water phosphate buffer partition coefficient, log D of compound at pH 7.4 by shake-flask method

By fraction unbound is commonly meant the share of the substance not bound to proteins or other matrix. The low end stands for extensive binding, the high end for weak binding. In general, IC50 refers to the point on the concentration scale where inhibition reaches its midpoint. Broadly, the Papp is the rate of passage across a membrane or cell layer, normalised by area and donor concentration. A word on the logD: it is the decadic logarithm of the distribution of all forms, ionised or not, between an organic phase and buffer at a given pH. High values mean higher lipophilicity, low ones lower lipophilicity. Regarding `CO[C@H]1C[C@](CC#N)(n2cc(-c3nc(-c4cnn(C)c4)cn4nccc34)cn2)C1`, the fraction unbound in data set [1] amounted to 0.3. Moreover, the IC50 in data set [2] was found to be 1.1 µM. In [3], the Papp was determined as 22 ×10⁻⁶ cm/s. The hepatocyte CLint in data set [4] was determined as 6 µL/min/1e6 cells. The logD in “physchem” came to 2.3. For the same compound, in [5], the microsomal CLint is < 8 µL/min/mg.
In the case of `Cn1cc(-c2cn3nccc3c(-c3cnn(C4(CC#N)CN(CCO)C4)c3)n2)cn1`, the concentration for half-maximal inhibition (IC50) in data set [6] was 1.04 µM; in data set [7], > 10 µM; in data set [8], 0.189 µM; in data set [9], 5.58 µM. For the same compound, the Papp in data set [3] came out at 7 ×10⁻⁶ cm/s. Also, the log distribution coefficient (logD) in the data set “physchem” came out at 1.2. Also, the microsomal CLint in data set [5] was < 8 µL/min/mg.
`Cn1cc(-c2cn3nccc3c(-c3cnn(C4(CC#N)CN(CC#N)C4)c3)n2)cn1`: the apparent permeability coefficient (Papp) in data set [3] was determined as 11 ×10⁻⁶ cm/s. Besides, in the data set “physchem”, the logD was determined as 1.5. In addition, in data set [5], the microsomal CLint is < 8 µL/min/mg.
With `CO[C@H]1C[C@@](CC#N)(n2cc(-c3nc(-c4cnn(C)c4)cn4nccc34)cn2)C1`, the 50% inhibitory concentration (IC50) in [7] is > 10 µM. Besides, the Papp in data set [3] was 20 ×10⁻⁶ cm/s. This compound registered a log distribution coefficient (logD) in the data set “physchem” of 2.2. Further, the microsomal CLint in data set [5] stood at 27 µL/min/mg.
In data set [8], `Cn1cc(-c2cc(-c3cnn(C4(CC#N)CN(CC(F)(F)F)C4)c3)n3ccnc3c2)cn1` registered a concentration for half-maximal inhibition (IC50) of 0.29 µM. In the data set “physchem”, this compound came in with a logD of 2.1.
Regarding `N#CC[C@]1(n2cc(-c3nc(-c4cn[nH]c4)cn4nccc34)cn2)C[C@@H](C#N)C1`, the half-inhibitory concentration (IC50) in [6] turned out to be 0.022 µM; in data set [7], 2.24 µM; in data set [8], 0.008 µM; in data set [9], 0.022 µM. For the same compound, the Papp in [3] is 6 ×10⁻⁶ cm/s. In “physchem”, the log distribution coefficient (logD) is 1.6. Further, the microsomal CLint in [5] amounted to 44 µL/min/mg.
Turning to `CCN1CC(CC#N)(n2cc(-c3nc(-c4cnn(C)c4)cn4nccc34)cn2)C1`, the half-maximal inhibitory concentration (IC50) in [6] was 0.346 µM; in data set [7] it was > 10 µM; in data set [8], 0.046 µM; in [9], 2.67 µM. In addition, the Papp in data set [3] was 33 ×10⁻⁶ cm/s. The logD in the data set “physchem” was determined as 2.1. Moreover, the microsomal CLint in [5] was determined as 21 µL/min/mg.
As for `Cn1cc(-c2cc(-c3cnn(C4(CC#N)CN(CC(F)(F)F)C4)c3)n3cnnc3c2)cn1`, the IC50 in [8] was > 10 µM. For the same compound, the logD in “physchem” was 1.2.
Regarding `N#CC[C@]1(n2cc(-c3nc(-c4cn[nH]c4)cn4nccc34)cn2)C[C@H](C#N)C1`, the IC50 in [6] was 0.28 µM; in data set [7] it was > 10 µM; in data set [8], 0.044 µM; in data set [9], 0.398 µM. In data set [3], the apparent permeability (Papp) worked out at 7 ×10⁻⁶ cm/s. The compound further returned a logD in the data set “physchem” of 1.7. The microsomal CLint in data set [5] was determined as 19 µL/min/mg.
Consider `Cn1cc(-c2cn3nccc3c(-c3cnn(C4(CC#N)CN(CC(F)(F)F)C4)c3)n2)cn1`, for which the IC50 in [6] was 0.065 µM; in data set [7], > 9.85 µM; in data set [8] it was 0.01 µM; in data set [9], 0.358 µM. Moreover, the apparent permeability coefficient (Papp) in data set [3] is 18 ×10⁻⁶ cm/s. The same compound gave a logD in “physchem” of 2.5. For the same compound, in data set [5], the microsomal CLint stood at 18 µL/min/mg.
In data set [1], `Cn1ccc(-c2cn3nccc3c(-c3cnn([C@]4(CC#N)C[C@@H](C#N)C4)c3)n2)n1` gave a fraction unbound of 0.2. For the same compound, the IC50 was 0.467 µM in data set [6], > 10 µM in [7], 0.067 µM in data set [8] and 2.53 µM in data set [9]. Further, in the data set on TYK2/JAK2 (Homo sapiens), the fIC50 turned out to be 254 nM. The Ratio IC50 in the data set filed under Homo sapiens was 7. Moreover, in data set [3], the Papp is 20 ×10⁻⁶ cm/s. Besides, the hepatocyte CLint in [4] was < 2 µL/min/1e6 cells. Besides, the log distribution coefficient (logD) in the data set “physchem” is 1.6. Also, the microsomal CLint in data set [5] was < 8 µL/min/mg.
Take `Cn1cc(-c2cn3nccc3c(-c3cnn(C4(CC#N)CN(CC5CC5)C4)c3)n2)cn1`: the IC50 in [6] was 0.187 µM; in data set [7], > 10 µM; in data set [8], 0.04 µM; in [9], 0.933 µM. Moreover, the apparent permeability coefficient (Papp) in data set [3] turned out to be 27 ×10⁻⁶ cm/s. For the same compound, in data set [5], the microsomal CLint stood at 30 µL/min/mg.
As to `Cn1cc(-c2cn3nccc3c(-c3cnn([C@]4(CC#N)C[C@H](CC#N)C4)c3)n2)cn1`, the Papp in data set [3] turned out to be 21 ×10⁻⁶ cm/s. This compound showed a log distribution coefficient (logD) in “physchem” of 1.8. For the same compound, the microsomal CLint in [5] was found to be 10 µL/min/mg.
The corresponding values for `Cn1cc(-c2cn3nccc3c(-c3cnn([C@]4(CC#N)C[C@@H](CC#N)C4)c3)n2)cn1` are 20 ×10⁻⁶ cm/s, 1.9 and 11 µL/min/mg.
For the compound `CC(=O)N1CC(CC#N)(n2cc(-c3nc(-c4cnn(C)c4)cn4nccc34)cn2)C1`, the half-inhibitory concentration (IC50) in [6] is 1.75 µM; in data set [7], > 10 µM; in data set [8], 0.678 µM; in [9] it was 6.11 µM. The apparent permeability coefficient (Papp) in data set [3] worked out at 4 ×10⁻⁶ cm/s. Besides, the log distribution coefficient (logD) in the data set “physchem” stood at 1.2. Further, in data set [5], the microsomal CLint was < 8 µL/min/mg.
With `N#CC[C@]1(n2cc(-c3nc(-c4cc[nH]n4)cn4nccc34)cn2)C[C@H](C#N)C1`, the fraction unbound in data set [1] was found to be 0.32. Also, the half-maximal inhibitory concentration (IC50) in data set [6] is 0.172 µM; in data set [7], > 10 µM; in data set [8], 0.026 µM; in data set [9], 0.284 µM. The fIC50 in the data set on TYK2/JAK2 (Homo sapiens) was found to be 334 nM. Further, the Ratio IC50 in the data set listed under Homo sapiens came to 7. In addition, the Papp in [3] was determined as 17 ×10⁻⁶ cm/s. The hepatocyte CLint in [4] worked out at 7 µL/min/1e6 cells. In the data set “physchem”, the logD came to 1.7. Also, the microsomal CLint in [5] is < 8 µL/min/mg.
In the case of `Cn1ccc(-c2cn3nccc3c(-c3cnn([C@]4(CC#N)C[C@H](C#N)C4)c3)n2)n1`, the IC50 was 0.045 µM in [6], > 9.59 µM in [7], 0.01 µM in data set [8] and 0.261 µM in data set [9]. Also, in data set [3], the Papp came to 14 ×10⁻⁶ cm/s. The compound further had a logD in the data set “physchem” of 1.6. Moreover, the microsomal CLint in data set [5] was determined as 23 µL/min/mg.
The compound `Cn1cc(-c2cc(-c3cnn(C4(CC#N)CN(CC(F)(F)F)C4)c3)n3ncnc3c2)cn1` returned an IC50 in [8] of 0.476 µM. In the data set “physchem”, the logD was 2.3.
`Cn1cc(-c2cn3nccc3c(-c3cnn([C@]4(CC#N)C[C@H](C#N)C4)c3)n2)cn1` yielded a fraction unbound in data set [1] of 0.34. Also, the apparent permeability coefficient (Papp) in data set [3] was 15 ×10⁻⁶ cm/s. Further, the hepatocyte CLint in data set [4] was found to be 12 µL/min/1e6 cells. The logD in “physchem” was 1.8. Moreover, in [5], the microsomal CLint stood at 17 µL/min/mg.
Turning to `N#CC[C@]1(n2cc(-c3nc(-c4cc[nH]n4)cn4nccc34)cn2)C[C@@H](C#N)C1`, the concentration for half-maximal inhibition (IC50) in [6] turned out to be 0.031 µM; in data set [7] it was 4.45 µM; in data set [8], 0.009 µM; in data set [9], 0.043 µM. In addition, the Papp in [3] stood at 7 ×10⁻⁶ cm/s. The logD in the data set “physchem” amounted to 1.7. Also, in data set [5], the microsomal CLint was 20 µL/min/mg.
